Laboratory results as given in the NIST ThermoML archive (doi:10.1016/j.fluid.2007.07.020).
Where “and” joins values, the source holds several entries; their conditions need not be identical. Equal entries are not always repeated. ± gives the expanded uncertainty stated by the source.

Tests used:
[1] = Crystal; DTA
[2] = Molar enthalpy of transition or fusion; settings: Crystal; DSC

In the case of `O=C([O-])Cc1ccccc1Nc1c(Cl)cccc1Cl.[Na+]` [sodium diclofenac], the Normal melting temperature [1] is reported as 287 ± 3 °C and the “Molar enthalpy of transition or fusion” value [2] is reported as 7.6 kcal/mol and 9.5 kcal/mol.
